Results as given in PubChem BioAssay (NCI).
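Growth conditions: 96-well plates. Treatment: test compound, 48 hours, 5 concentrations. Analysis: linear interpolation between bracketing concentrations; unreached endpoints set to highest concentration. GI50 is the concentration that inhibits growth by half. Definition used: TGI = concentration required for complete inhibition of growth.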

Legend:
Test in all cases: NCI tumour cell line growth inhibition, 48 h
NCI/ADR-RES ovarian = system: NCI/ADR-RES ovarian
SF-268 CNS = system: SF-268 CNS
CCRF-CEM leukemia = system: CCRF-CEM leukemia
NCI-H23 lung = system: NCI-H23 lung
MDA-MB-231 breast = system: MDA-MB-231 breast
A549 NSCLC = system: A549 NSCLC
K-562 leukemia = system: K-562 leukemia
OVCAR-5 ovarian = system: OVCAR-5 ovarian
OVCAR-8 ovarian = system: OVCAR-8 ovarian
HS 578T breast = system: HS 578T breast

SMILES | GI50 (NCI/ADR-RES ovarian) [µM] | TGI (NCI/ADR-RES ovarian) [µM] | GI50 (SF-268 CNS) [µM] | TGI (SF-268 CNS) [µM] | GI50 (CCRF-CEM leukemia) [µM] | TGI (CCRF-CEM leukemia) [µM] | GI50 (NCI-H23 lung) [µM] | TGI (NCI-H23 lung) [µM] | GI50 (MDA-MB-231 breast) [µM] | TGI (MDA-MB-231 breast) [µM] | GI50 (A549 NSCLC) [µM] | TGI (A549 NSCLC) [µM] | GI50 (K-562 leukemia) [µM] | TGI (K-562 leukemia) [µM] | GI50 (OVCAR-5 ovarian) [µM] | TGI (OVCAR-5 ovarian) [µM] | GI50 (OVCAR-8 ovarian) [µM] | TGI (OVCAR-8 ovarian) [µM] | GI50 (HS 578T breast) [µM] | TGI (HS 578T breast) [µM]
Cn1cc(-c2cc(-c3cn(C)c4ccccc34)[nH]n2)c2ccccc21 | 27.6 | > 100 | 16 | > 100 | 14.4 | 29.3 | 22 | > 100 | 8.06 | > 100 | 16.3 | > 100 | 42.1 | > 100 | > 100 | > 100 | 28.8 | > 100 | 18.5 | > 100
CN1CCCCC1CCN1c2ccccc2Sc2ccc(Br)cc21 (stereo unspecified) | 1.98 | 4.13 | 2.44 | 6.61 | 2.77 | 10.1 | 4.44 | 17.1 | 1.8 | 4.18 | 2.71 | 8.19 | 2.18 | 5.98 | 2.45 | 7.65 | 2.11 | 4.47 | 2.06 | 5.85
CC(=O)ON(OCc1ccc2ccccc2c1)C(C)=O | > 100 | > 100 | > 100 | > 100 | > 100 | > 100 | > 100 | > 100 | > 100 | > 100 | > 100 | > 100 | > 100 | > 100 | > 100 | > 100 | > 100 | > 100 | 55.2 | > 100
S=c1ssnc1-c1cc2ccccc2o1 | 25.7 | 90.7 | 13.9 | 35 | 3.23 | > 100 | 24.4 | 75.5 | 13.3 | 29.4 | 16.3 | 32.1 | 22.5 | > 100 | 20.8 | 39.2 | 11.3 | 29.4 | 18.5 | 80.7
CC1(C)N=C(N)N=C(N)N1c1ccc(CCCC(=O)Nc2ccc(S(=O)(=O)F)cc2)cc1 | > 100 | > 100 | 6.59 | > 100 | 4.13 | > 100 | 8.59 | > 100 | 45.7 | > 100 | 9.82 | > 100 | 2.13 | > 100 | 12 | > 100 | 12.9 | > 100 | > 100 | > 100
CC(C)(O)C1COC2=C1C(=O)c1ccccc1C2=O (stereo unspecified) | – | 62.1 | – | 77.1 | – | > 100 | – | 38.8 | – | > 100 | – | > 100 | – | > 100 | – | 54 | – | 84.6 | – | > 100
COc1cccc(C2CC(=O)Nc3c2c(C)nn3-c2nc3ccccc3[nH]2)c1OC (stereo unspecified) | 6.67 | > 100 | 4.92 | 61.3 | 1.86 | > 100 | 2.53 | 7.54 | 2.92 | 8.26 | 3.5 | 28.6 | 3.89 | > 100 | 11.8 | > 100 | 4.41 | > 100 | 3.51 | 47.5
CC(C)(Oc1ccc(-c2cccc3ccccc23)cc1)C(=O)O | – | > 100 | – | > 100 | – | > 100 | – | > 100 | – | > 100 | – | > 100 | – | > 100 | – | > 100 | – | > 100 | – | > 100
CCc1ccc2c(c1)C(=O)c1c-2n(CCCN)c(=O)c2cc(OC)c(OC)cc12 | 1.68 | 3.22 | – | – | 1.1 | 2.48 | 1.81 | 3.3 | 1.63 | 3.14 | – | – | 0.306 | 0.907 | 1.82 | 3.24 | – | – | 2.07 | 3.78
COc1ccc2nc3ccccc3c(NCCNCCO)c2c1 | 5.04 | > 89 | 0.46 | 2.95 | 0.597 | 6.78 | 0.762 | 3.53 | 0.932 | 3.72 | 0.673 | 7.81 | 0.356 | 4.33 | 1.18 | 8.85 | 0.528 | 8.88 | 0.688 | 3.85
CCCN1C(=O)/C(=C/c2ccc(SC(F)(F)F)cc2)SC1=Nc1ccc(OC)cc1 | 11 | 42.4 | 11.3 | 43.9 | – | – | 12.6 | 30.2 | 5.93 | 19.5 | 8.87 | 30.1 | 23.1 | > 50 | 7.84 | 24 | 7.42 | 20.7 | 14 | 33.4
[O]=[Sn]([CH]1CCCCC1)[CH]1CCCCC1 | 0.357 | 1.63 | 0.214 | 0.654 | 0.0488 | 0.774 | 0.198 | 0.591 | 0.28 | 1.04 | 1.4 | 2.89 | 0.117 | – | 0.62 | 1.71 | 0.298 | 1.17 | 0.266 | 1.52
CC[C@H](C)[C@H](NC(=O)[C@H]1CCCCN1C)C(=O)N(C)[C@H](CCc1nc(C(=O)N[C@@H](Cc2ccccc2)C[C@H](C)C(=O)O)cs1)C(C)C | > 25 | > 25 | 0.184 | > 25 | 0.0857 | > 25 | 0.565 | > 25 | 0.596 | > 25 | 2.98 | > 25 | 0.0585 | > 25 | 1.82 | > 25 | 0.61 | > 25 | 0.123 | > 25
